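In this assay, cells in 96-well plates receive the compound at five concentrations for 48 hours. Endpoints are linearly interpolated between the surrounding concentrations. GI50 = concentration required for 50% inhibition of growth.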 Activity calls are given as the source filed them. Rule as the data show it: active = GI50 up to about 1.1 µM and inactive = higher.
Legend:
Test in all cases: DTP human tumour cell line panel, 48 h
BT-549 = system: BT-549
A498 = system: A498
A549 = system: A549
SR = system: SR
CCRF-CEM = system: CCRF-CEM
OVCAR-4 = system: OVCAR-4
PC-3 = system: PC-3
HOP-62 = system: HOP-62
SK-MEL-28 = system: SK-MEL-28
T47D = system: T47D
NCI/ADR-RES = system: NCI/ADR-RES
UACC-62 = system: UACC-62
SK-MEL-5 = system: SK-MEL-5
M14 = system: M14
SW-620 = system: SW-620
LOX IMVI = system: LOX IMVI
MDA-MB-435 = system: MDA-MB-435
NCI-H522 = system: NCI-H522
HT-29 = system: HT-29
SF-539 = system: SF-539

| SMILES | GI50 (BT-549) | GI50 (A498) | GI50 (A549) | GI50 (SR) | GI50 (CCRF-CEM) | GI50 (OVCAR-4) | GI50 (PC-3) | GI50 (HOP-62) | GI50 (SK-MEL-28) | GI50 (T47D) | GI50 (NCI/ADR-RES) | GI50 (UACC-62) | GI50 (SK-MEL-5) | GI50 (M14) | GI50 (SW-620) | GI50 (LOX IMVI) | GI50 (MDA-MB-435) | GI50 (NCI-H522) | GI50 (HT-29) | GI50 (SF-539) |
| --- | --- | --- | --- | --- | --- | --- | --- | --- | --- | --- | --- | --- | --- | --- | --- | --- | --- | --- | --- | --- |
| COC(CO[Si](C)(C)N[Si](C)(C)OCC(OC)c1ccccc1)c1ccccc1 (configuration not stated) | > 100 µM (inactive) | > 100 µM (inactive) | > 100 µM (inactive) | > 100 µM (inactive) | > 100 µM (inactive) | > 100 µM (inactive) | > 100 µM (inactive) | > 100 µM (inactive) | > 100 µM (inactive) | > 100 µM (inactive) | > 100 µM (inactive) | > 100 µM (inactive) | > 100 µM (inactive) | > 100 µM (inactive) | > 100 µM (inactive) | > 100 µM (inactive) | > 100 µM (inactive) |  |  |  |
| CC(=O)C(C(=O)c1ccc(C)cc1)[C@@H]1OC(C)(C)O[C@@H]1[C@H]1COC(C)(C)O1 (some centres not stated) | 15 µM (inactive) | 36.9 µM (inactive) | 19.6 µM (inactive) |  | 1.27 µM (inactive) | 4 µM (inactive) | 8.57 µM (inactive) | 10.5 µM (inactive) | 20.8 µM (inactive) | 11.4 µM (inactive) | 9.93 µM (inactive) | 10.9 µM (inactive) | 12.1 µM (inactive) | 11.3 µM (inactive) | 3.55 µM (inactive) | 6.43 µM (inactive) | 9.75 µM (inactive) | 4.89 µM (inactive) | 5.21 µM (inactive) | 5.79 µM (inactive) |
| CCCC(Sc1nc(N)nc2nc[nH]c12)C(=O)O (configuration not stated) | > 100 µM (inactive) | > 100 µM (inactive) | > 100 µM (inactive) |  | 81.5 µM (inactive) | > 100 µM (inactive) | > 100 µM (inactive) | > 100 µM (inactive) | > 100 µM (inactive) | > 100 µM (inactive) | 41.9 µM (inactive) | 36.6 µM (inactive) | > 100 µM (inactive) | 53.2 µM (inactive) | > 100 µM (inactive) | 34.5 µM (inactive) | 74.8 µM (inactive) | 49 µM (inactive) | 78.5 µM (inactive) |  |
| CN(C)c1ccc(/C=c2/c3ccccc3n3c2cc(/C=C/c2ccccc2)[n+]3C)cc1 | 0.08 µM (active) | 0.266 µM (active) | 0.0512 µM (active) | 0.0367 µM (active) | 0.0206 µM (active) | 0.286 µM (active) | 0.0933 µM (active) | 0.0893 µM (active) | 0.269 µM (active) | 0.0164 µM (active) |  | 0.281 µM (active) | 0.144 µM (active) | 0.218 µM (active) | 0.0916 µM (active) | 0.12 µM (active) | 0.135 µM (active) | 0.108 µM (active) | 0.142 µM (active) | 0.038 µM (active) |
| Cc1ccc2nc(-c3ccc(NC(=O)c4ccc(N)cc4)c(S(=O)(=O)O)c3)sc2c1 | > 100 µM (inactive) | > 100 µM (inactive) | > 100 µM (inactive) |  | > 100 µM (inactive) | > 100 µM (inactive) | > 100 µM (inactive) | > 100 µM (inactive) | > 100 µM (inactive) | > 100 µM (inactive) | > 100 µM (inactive) | > 100 µM (inactive) | > 100 µM (inactive) | > 100 µM (inactive) | > 100 µM (inactive) | > 100 µM (inactive) | > 100 µM (inactive) | > 100 µM (inactive) | > 100 µM (inactive) |  |
| C/C(=N\NC(=S)N(C)C)c1ccccn1 | 0.0111 µM (active) | 0.519 µM (active) | 0.0413 µM (active) |  | < 0.01 µM (active) | < 0.01 µM (active) | < 0.01 µM (active) | 0.033 µM (active) | 0.269 µM (active) | < 0.01 µM (active) | < 0.01 µM (active) | < 0.0124 µM (active) | 0.178 µM (active) | < 0.01 µM (active) | 0.0109 µM (active) | < 0.01 µM (active) | 0.221 µM (active) | 0.247 µM (active) | < 0.01 µM (active) | 0.231 µM (active) |
| O=C(O)c1cc(NCc2cc(O)ccc2O)ccc1O [LAVENDUSTIN C] | > 100 µM (inactive) | > 100 µM (inactive) | > 100 µM (inactive) |  | 10.6 µM (inactive) | > 100 µM (inactive) | > 100 µM (inactive) | > 100 µM (inactive) | > 100 µM (inactive) | 35.6 µM (inactive) | > 100 µM (inactive) | > 100 µM (inactive) | > 100 µM (inactive) |  | 23.8 µM (inactive) |  | 27 µM (inactive) | 16.2 µM (inactive) | > 100 µM (inactive) | > 100 µM (inactive) |

— ChEMBL document CHEMBL1201862, “PubChem BioAssay data set” (2004)
